The values below come from paper PMC5601071 (Frontiers in Pharmacology, 2017).

Residues, ends and D or L forms follow the SMILES beside them. *: point of attachment. Dansyl = CN(C)c1cccc2c(S(=O)(=O)*)cccc12; Fmoc = O=C(OCC1c2ccccc2-c2ccccc21)*; Stearoyl = CCCCCCCCCCCCCCCCCC(=O)*; Palmitoyl = CCCCCCCCCCCCCCCC(=O)*; Myristoyl = CCCCCCCCCCCCCC(=O)*; For = O=C*

One may read the inhibition as the percentage by which the read-out fell short of the control.

For one assay, the target named is T1, TREK-1 channel (hTREK-1/HEK cells) (Homo sapiens, UniProt O95069).
T1 construct: expressed in transfected cells
T1 sequence (O95069 1-426): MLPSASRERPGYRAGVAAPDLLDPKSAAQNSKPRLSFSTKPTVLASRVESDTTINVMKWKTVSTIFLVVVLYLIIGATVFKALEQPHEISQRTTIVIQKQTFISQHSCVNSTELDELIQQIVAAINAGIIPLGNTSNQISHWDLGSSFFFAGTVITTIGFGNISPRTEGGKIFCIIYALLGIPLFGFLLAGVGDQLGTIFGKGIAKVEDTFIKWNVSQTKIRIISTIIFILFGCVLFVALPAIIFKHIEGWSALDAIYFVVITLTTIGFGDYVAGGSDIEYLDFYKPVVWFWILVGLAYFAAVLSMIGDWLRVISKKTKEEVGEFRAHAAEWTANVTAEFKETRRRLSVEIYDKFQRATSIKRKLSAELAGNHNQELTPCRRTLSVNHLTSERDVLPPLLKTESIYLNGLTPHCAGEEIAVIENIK
As to the kind of experiment: TREK-1 current inhibition, whole-cell patch-clamp on hTREK-1/HEK cell line. It counts as cell-based. The settings on record: HEK293, peptide 100 nM; TREK-1 first activated with 10 μM arachidonic acid (AA); current density at 0 mV; hTREK-1/HEK cells; mean ± SEM, n = cells; read-out: % of TREK-1 inhibition. The procedure:
The human TREK-1/HEK cell line (Moha ou Maati et al., [2011]) and the native HEK293 cell line were maintained in Dulbecco's Modified Eagle's Medium (DMEM) supplemented with 10% (v/v) heat-inactivated fetal bovine serum, 1% (v/v) penicillin-streptomycin, 1% Glutamax. For the hTREK-1/HEK cells, 0.5 mg/ml G418 were added to the medium.
Cells were incubated in a humidified atmosphere containing 5% CO2. For electrophysiological measurements, cells were plated at a density of 20,000 cells per 35 mm dish.
Cells from the hTREK-1/HEK cell line were seeded at a density of 20,000 cells/35 mm dish. Electrophysiological recordings were performed 24–48 h after plating using the whole-cell configuration of patch-clamp technique. TREK-1 currents (ITREK−1) were recorded using RK400 patch-clamp amplifier (Axon Instrument, USA). They were low-pass filtered at 3 kHz and digitized at 10 kHz using a 12-bit analog-to-digital converter digidata (1322 series, Axon Instrument, USA). ITREK−1amplitudes were expressed as current densities [current amplitude (pA)/membrane capacitance (pF)]. The results were expressed as mean ± SEM (standard error of the mean).
Cells were continuously perfused using an external bath solution containing in mM: 150 NaCl, 5 KCl, 3 MgCl2, 1 CaCl2, and 10 HEPES. The bath solution was initially adjusted to pH 7.4 with NaOH. The intra-pipette solution contained in mM: 155 KCl, 3 MgCl2, 5 EGTA, and 10 HEPES adjusted to pH 7.2 with KOH. In order to measure ITREK−1, a cocktail of potassium channel blockers was added to the bath solution. This cocktail contained: 3 mM 4-AP (4-aminopyridine), 10 mM TEA (tetraethylammonium), 10 μM Glibenclamide, 100 nM Apamin, and 50 nM Charybdotoxin. Data acquisition was carried out using a computer (Dell Pentium) with pClamp software (Axon Instrument, USA). Whole-cell currents were generated by running a pulse or ramp protocol every 5 s from −100 to +60 mV with a holding potential maintained at −80 mV. To evaluate the inhibitory effect on TREK-1 channels of shortened spadin analogs compared with spadin, cells were first activated by 10 μM arachidonic acid (AA). Dose-response curves were realized to compare spadin-analog effects with spadin using Origin 8.6 (Northampton, MA, USA).
Patch-clamp recording data were analyzed using Clampfit (Molecular Devices, USA). I = f(V) curves were obtained from −100 to +60 mV ramp. Data were presented as mean ± SEM.
For orientation: The patch-clamp technique gives a direct electrical read-out from membranes.
Consider `CCOC(=O)[C@H](CCCNC(=N)N)NC(=O)[C@H](CC(C)C)NC(=O)CNC(=O)[C@H](Cc1c[nH]c2ccccc12)NC(=O)[C@H](CO)NC(=O)[C@@H](NC(=O)CN)C(C)C` [PE 22-28-O-Ethyl] (H-GVSWGLR-OEt), for which the inhibition at 0.1 µM is 41.4 ± 11.5%.
Still for that read-out and setting: the figure for `COC(=O)[C@H](CCCNC(=N)N)NC(=O)[C@H](CC(C)C)NC(=O)CNC(=O)[C@H](Cc1c[nH]c2ccccc12)NC(=O)[C@H](CO)NC(=O)[C@@H](NC(=O)CN)C(C)C` [PE 22-28-O-Methyl] (H-GVSWGLR-OMe) is 43 ± 13.5%; for `CC(C)C[C@H](NC(=O)CNC(=O)[C@H](Cc1c[nH]c2ccccc12)NC(=O)[C@H](CO)NC(=O)[C@@H](NC(=O)CN)C(C)C)C(=O)N[C@@H](CCCNC(=N)N)C(=O)O` [PE 22-28] (H-GVSWGLR-OH) it is 55.5 ± 4.55%.
For `CC[C@H](C)[C@H](NC(=O)[C@@H]1CCCN1)C(=O)NCC(=O)N[C@H](C(=O)N[C@@H](CO)C(=O)N[C@@H](Cc1c[nH]c2ccccc12)C(=O)NCC(=O)N[C@@H](CC(C)C)C(=O)N[C@@H](CCCNC(=N)N)C(=O)O)C(C)C` [PI-PE 22-28] (H-PIGVSWGLR-OH), the inhibition at 0.1 µM came to 46.2 ± 7.57%.

Staying with this assay, now noted: HEK293, read-out: % of TREK-1 inhibition.
For the compound `CC(=O)NCC(=O)N[C@H](C(=O)N[C@@H](CO)C(=O)N[C@@H](Cc1c[nH]c2ccccc12)C(=O)NCC(=O)N[C@@H](CC(C)C)C(=O)N[C@@H](CCCNC(=N)N)C(=O)O)C(C)C` [Acetyl-PE 22-28] (Ac-GVSWGLR-OH), the inhibition at 0.1 µM worked out at 20.5 ± 8.78%.
The same measure, in the same setting: for `CC(C)C[C@H](NC(=O)CNC(=O)[C@H](Cc1c[nH]c2ccccc12)NC(=O)[C@H](CO)NC(=O)[C@@H](NC(=O)CNS(=O)(=O)c1cccc2c(N(C)C)cccc12)C(C)C)C(=O)N[C@@H](CCCNC(=N)N)C(=O)O` [DansyI-PE 22-28] (Dansyl-GVSWGLR-OH) the value was 48.8 ± 14.5%; for `CC(C)C[C@H](NC(=O)CNC(=O)[C@H](Cc1c[nH]c2ccccc12)NC(=O)[C@H](CO)NC(=O)[C@@H](NC(=O)CNC(=O)OCC1c2ccccc2-c2ccccc21)C(C)C)C(=O)N[C@@H](CCCNC(=N)N)C(=O)O` [F-Moc-PE 22-28] (Fmoc-GVSWGLR-OH), 5.83 ± 10.9%.
The same measure, in the same setting: for `CC(C)C[C@H](NC(=O)CNC(=O)[C@H](Cc1c[nH]c2ccccc12)NC(=O)[C@H](CO)NC(=O)[C@@H](NC(=O)CNC=O)C(C)C)C(=O)N[C@@H](CCCNC(=N)N)C(=O)O` [Formyl-PE 22-28] (For-GVSWGLR-OH) the value was 32.5 ± 12.2%; for `CCCCCCCCCCCCCC(=O)NCC(=O)N[C@H](C(=O)N[C@@H](CO)C(=O)N[C@@H](Cc1c[nH]c2ccccc12)C(=O)NCC(=O)N[C@@H](CC(C)C)C(=O)N[C@@H](CCCNC(=N)N)C(=O)O)C(C)C` [Myristoyl-PE 22-28] (Myristoyl-GVSWGLR-OH), 18 ± 17.8%.
In the case of `CCCCCCCCCCCCCCCC(=O)NCC(=O)N[C@H](C(=O)N[C@@H](CO)C(=O)N[C@@H](Cc1c[nH]c2ccccc12)C(=O)NCC(=O)N[C@@H](CC(C)C)C(=O)N[C@@H](CCCNC(=N)N)C(=O)O)C(C)C` [Palmitoyl-PE 22-28] (Palmitoyl-GVSWGLR-OH), the inhibition at 0.1 µM worked out at 26.7 ± 16.4%.
The same measure, in the same setting: the figure for `CCCCCCCCCCCCCCCCCC(=O)NCC(=O)N[C@H](C(=O)N[C@@H](CO)C(=O)N[C@@H](Cc1c[nH]c2ccccc12)C(=O)NCC(=O)N[C@@H](CC(C)C)C(=O)N[C@@H](CCCNC(=N)N)C(=O)O)C(C)C` [Stearic acid-PE 22-28] (Stearoyl-GVSWGLR-OH) is 5.41 ± 5.5%.
